In patent US8933079B2, “Pyridone and pyridazinone derivatives as anti-obesity agents” (Boehringer Ingelheim International GmbH, priority 2012, dated 2015):

Molecular target: hMCH-1R (Homo sapiens (Human), UniProt Q99705)
Assay: MCH-1 receptor binding test (125I-MCH binding to hMCH-1R transfected cell membranes)
Conditions: competition with 100 pM 125I-MCH, membranes of CHO/Galpha16 cells stably transfected with hMCH-1R
Method: Res Commun. […] After the incubation the reaction is filtered using a cell harvester through 0.5% PEI treated fibreglass filters (GF/B, Unifilter Packard). The membrane-bound radioactivity retained on the filter is then determined after the addition of scintillator substance (Packard Microscint 20) in a measuring device (TopCount of Packard). […] The analysis of the concentration binding curve is carried out on the assumption of one receptor binding site.

Chain of hMCH-1R (Q99705 whole entry): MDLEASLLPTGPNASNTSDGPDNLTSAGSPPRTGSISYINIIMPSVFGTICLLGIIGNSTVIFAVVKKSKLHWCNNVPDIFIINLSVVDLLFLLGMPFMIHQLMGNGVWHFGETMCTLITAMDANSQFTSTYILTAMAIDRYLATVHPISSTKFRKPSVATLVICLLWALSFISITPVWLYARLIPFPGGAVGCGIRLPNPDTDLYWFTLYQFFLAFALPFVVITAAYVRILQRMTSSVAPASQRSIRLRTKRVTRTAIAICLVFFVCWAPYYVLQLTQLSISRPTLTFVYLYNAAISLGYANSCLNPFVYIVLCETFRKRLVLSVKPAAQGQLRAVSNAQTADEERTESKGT

Cc1cc(CN2CCCC2)ccc1C(=O)Cn1ccc(OCc2ccc(Br)cn2)cc1=O [Example 4.8, 4-(5-Bromo-pyridin-2-ylmethoxy)-1-[2-(2-methyl-4-pyrrolidin-1-ylmethyl-phenyl)-2-oxo-ethyl]-1H-pyridin-2-one] and Cc1cc(CN2CCCCC2)ccc1C(=O)Cn1ccc(OCc2ccc(Br)cn2)cc1=O [Example 4.16] are within 1.5-fold of each other in IC50: 17 nM for the first, 12 nM for the second.

Cc1cc(CN2CC[C@@H](O)C2)ccc1C(=O)Cn1ccc(OCc2ccc(Br)cn2)cc1=O [Example 4.9, (R)-4-(5-Bromo-pyridin-2-ylmethoxy)-1-{2-[4-(3-hydroxy-pyrrolidin-1-ylmethyl)-2-methyl-phenyl]-2-oxo-ethyl}-1H-pyridin-2-one] and Cc1cc(CN2CCC[C@@H](O)C2)ccc1C(=O)Cn1ccc(OCc2ccc(Br)cn2)cc1=O [Example 4.12, (R)-4-(5-Bromo-pyridin-2-ylmethoxy)-1-{2-[4-(3-hydroxy-piperidin-1-ylmethyl)-2-methyl-phenyl]-2-oxo-ethyl}-1H-pyridin-2-one] are within 1.5-fold of each other in IC50: 20 nM for the first, 23 nM for the second.

CCN1CCN(Cc2ccc(C(=O)Cn3ccc(OCc4ccc(Br)cn4)cc3=O)c(C)c2)CC1 [Example 4.10] and Cc1cc(CN2CCN(C)CC2)ccc1C(=O)Cn1ccc(OCc2ccc(Br)cn2)cc1=O [Example 4.14] are within 1.5-fold of each other in IC50: 53 nM for the first, 72 nM for the second.

First: Cc1cc(CN2CCOCC2)ccc1C(=O)Cn1ccc(OCc2ccc(Br)cn2)cc1=O [Example 4.11]
Second: Cc1cc(CN2CCC2)ccc1C(=O)Cn1ccc(OCc2ccc(Br)cn2)cc1=O [Example 4.21, 1-[2-(4-Azetidin-1-ylmethyl-2-methyl-phenyl)-2-oxo-ethyl]-4-(5-bromo-pyridin-2-ylmethoxy)-1H-pyridin-2-one]
The IC50 of the first is 3.3-fold higher: 59 nM for the first, 18 nM for the second. The second is the more potent here.

CNCc1ccc(C(=O)Cn2ccc(OCc3ccc(Br)cn3)cc2=O)c(C)c1 [Example 4.13, 4-(5-Bromo-pyridin-2-ylmethoxy)-1-[2-(2-methyl-4-methylaminomethyl-phenyl)-2-oxo-ethyl]-1H-pyridin-2-one] and Cc1cc(CNC(C)C)ccc1C(=O)Cn1ccc(OCc2ccc(Br)cn2)cc1=O [Example 4.15, 4-(5-Bromo-pyridin-2-ylmethoxy)-1-{2-[4-(isopropylamino-methyl)-2-methyl-phenyl]-2-oxo-ethyl}-1H-pyridin-2-one] are within 1.5-fold of each other in IC50: 26 nM for the first, 18 nM for the second.

Cc1cc(CN(C)C(C)C)ccc1C(=O)Cn1ccc(OCc2ccc(Br)cn2)cc1=O [Example 4.17, 4-(5-Bromo-pyridin-2-ylmethoxy)-1-(2-{4-[(isopropyl-methyl-amino)-methyl]-2-methyl-phenyl}-2-oxo-ethyl)-1H-pyridin-2-one] and CCN(C)Cc1ccc(C(=O)Cn2ccc(OCc3ccc(Br)cn3)cc2=O)c(C)c1 [Example 4.18, 4-(5-Bromo-pyridin-2-ylmethoxy)-1-(2-{4-[(ethyl-methyl-amino)-methyl]-2-methyl-phenyl}-2-oxo-ethyl)-1H-pyridin-2-one] are within 1.5-fold of each other in IC50: 18 nM for the first, 19 nM for the second.

Compared with CCN(CC)Cc1ccc(C(=O)Cn2ccc(OCc3ccc(Br)cn3)cc2=O)c(C)c1 [Example 4.20, 4-(5-Bromo-pyridin-2-ylmethoxy)-1-[2-(4-diethylaminomethyl-2-methyl-phenyl)-2-oxo-ethyl]-1H-pyridin-2-one], CCNCc1ccc(C(=O)Cn2ncc(OCc3ccc(F)cn3)cc2=O)c(C)c1 [Example 6.3] is 3.1-fold higher in IC50: 19 nM for the first, 59 nM for the second. The first is the more potent here.

Cc1cc(CN2CCC[C@@H](O)C2)ccc1C(=O)Cn1ncc(OCc2ccccc2)cc1=O [Example 5.1, (R)-5-Benzyloxy-2-{2-[4-(3-hydroxy-piperidin-1-ylmethyl)-2-methyl-phenyl]-2-oxo-ethyl}-2H-pyridazin-3-one] and Cc1cc(CN2CCC[C@H](O)C2)ccc1C(=O)Cn1ncc(OCc2ccccc2)cc1=O [Example 5.13, (S)-5-Benzyloxy-2-{2-[4-(3-hydroxy-piperidin-1-ylmethyl)-2-methyl-phenyl]-2-oxo-ethyl}-2H-pyridazin-3-one] are within 1.5-fold of each other in IC50: 14 nM for the first, 13 nM for the second.

Cc1cc(CN2CCC[C@H]2CO)ccc1C(=O)Cn1ncc(OCc2ccccc2)cc1=O [Example 5.3, (S)-5-Benzyloxy-2-{2-[4-(2-hydroxymethyl-pyrrolidin-1-ylmethyl)-2-methyl-phenyl]-2-oxo-ethyl}-2H-pyridazin-3-one] and Cc1cc(CN2CCCC[C@@H]2CO)ccc1C(=O)Cn1ncc(OCc2ccccc2)cc1=O [Example 5.12, (R)-5-Benzyloxy-2-{2-[4-(2-hydroxymethyl-piperidin-1-ylmethyl)-2-methyl-phenyl]-2-oxo-ethyl}-2H-pyridazin-3-one] are within 1.5-fold of each other in IC50: 11 nM for the first, 13 nM for the second.

Cc1cc(CN2CC[C@@H](O)C2)ccc1C(=O)Cn1ncc(OCc2ccccc2)cc1=O [Example 5.4, (R)-5-Benzyloxy-2-{2-[4-(3-hydroxy-pyrrolidin-1-ylmethyl)-2-methyl-phenyl]-2-oxo-ethyl}-2H-pyridazin-3-one] and Cc1cc(CN2CC[C@H](O)C2)ccc1C(=O)Cn1ncc(OCc2ccccc2)cc1=O [Example 5.5] are within 1.5-fold of each other in IC50: 12 nM for the first, 11 nM for the second.

CCNCc1ccc(C(=O)Cn2ncc(OCc3ccccc3)cc2=O)c(C)c1 [Example 5.6, 5-Benzyloxy-2-[2-(4-ethylaminomethyl-2-methyl-phenyl)-2-oxo-ethyl]-2H-pyridazin-3-one] and Cc1cc(CN2CC(O)C2)ccc1C(=O)Cn1ncc(OCc2ccccc2)cc1=O [Example 5.7, 5-Benzyloxy-2-{2-[4-(3-hydroxy-azetidin-1-ylmethyl)-2-methyl-phenyl]-2-oxo-ethyl}-2H-pyridazin-3-one] are the same in IC50: 10 nM for the first, 10 nM for the second.

Cc1cc(CN2CCC(O)CC2)ccc1C(=O)Cn1ncc(OCc2ccccc2)cc1=O [Example 5.8] and Cc1cc(CN2CCC(CO)CC2)ccc1C(=O)Cn1ncc(OCc2ccccc2)cc1=O [Example 5.11, 5-Benzyloxy-2-{2-[4-(4-hydroxymethyl-piperidin-1-ylmethyl)-2-methyl-phenyl]-2-oxo-ethyl}-2H-pyridazin-3-one] are within 1.5-fold of each other in IC50: 15 nM for the first, 13 nM for the second.

Going from Cc1cc(CN2CCOC(C)C2)ccc1C(=O)Cn1ncc(OCc2ccccc2)cc1=O (stereo not shown) [Example 5.9, 5-Benzyloxy-2-{2-[2-methyl-4-(2-methyl-morpholin-4-ylmethyl)-phenyl]-2-oxo-ethyl}-2H-pyridazin-3-one] to Cc1cc(CN2CCC(C)(O)C2)ccc1C(=O)Cn1ncc(OCc2ccccc2)cc1=O (stereo not shown) [Example 5.14, 5-Benzyloxy-2-{2-[4-(3-hydroxy-3-methyl-pyrrolidin-1-ylmethyl)-2-methyl-phenyl]-2-oxo-ethyl}-2H-pyridazin-3-one], the IC50 falls from 30 nM to 10 nM (3-fold). The second is the more potent here.

Cc1cc(CN2CCCC2)ccc1C(=O)Cn1ncc(OCc2ccc(F)cn2)cc1=O [Example 6.1, 5-(5-Fluoro-pyridin-2-ylmethoxy)-2-[2-(2-methyl-4-pyrrolidin-1-ylmethyl-phenyl)-2-oxo-ethyl]-2H-pyridazin-3-one] and Cc1cc(CN2CCCCC2)ccc1C(=O)Cn1ncc(OCc2ccc(F)cn2)cc1=O [Example 6.2, 5-(5-Fluoro-pyridin-2-ylmethoxy)-2-[2-(2-methyl-4-piperidin-1-ylmethyl-phenyl)-2-oxo-ethyl]-2H-pyridazin-3-one] are within 1.5-fold of each other in IC50: 38 nM for the first, 35 nM for the second.

Cc1cc(CN2CCC(O)CC2)ccc1C(=O)Cn1ncc(OCc2ccc(F)cn2)cc1=O [Example 6.4] and Cc1cc(CN2CC[C@H](O)C2)ccc1C(=O)Cn1ncc(OCc2ccc(F)cn2)cc1=O [Example 6.6] are within 1.5-fold of each other in IC50: 58 nM for the first, 49 nM for the second.

Cc1cc(CN2CCC[C@H]2CO)ccc1C(=O)Cn1ncc(OCc2ccc(Cl)cn2)cc1=O [Example 7.1, (S)-5-(5-Chloro-pyridin-2-ylmethoxy)-2-{2-[4-(2-hydroxymethyl-pyrrolidin-1-ylmethyl)-2-methyl-phenyl]-2-oxo-ethyl}-2H-pyridazin-3-one] and Cc1cc(CN2CCCC[C@@H]2CO)ccc1C(=O)Cn1ncc(OCc2ccc(Cl)cn2)cc1=O [Example 7.13, (R)-5-(5-Chloro-pyridin-2-ylmethoxy)-2-{2-[4-(2-hydroxymethyl-piperidin-1-ylmethyl)-2-methyl-phenyl]-2-oxo-ethyl}-2H-pyridazin-3-one] are within 1.5-fold of each other in IC50: 26 nM for the first, 35 nM for the second.

CCN1CCN(Cc2ccc(C(=O)Cn3ncc(OCc4ccc(Cl)cn4)cc3=O)c(C)c2)CC1 [Example 7.2] and Cc1cc(CN2CCN(C)CC2)ccc1C(=O)Cn1ncc(OCc2ccc(Cl)cn2)cc1=O [Example 7.4] are within 1.5-fold of each other in IC50: 71 nM for the first, 67 nM for the second.

Cc1cc(CN2CC(O)C2)ccc1C(=O)Cn1ncc(OCc2ccc(Cl)cn2)cc1=O [Example 7.3] and Cc1cc(CN2CC[C@@H](O)C2)ccc1C(=O)Cn1ncc(OCc2ccc(Cl)cn2)cc1=O [Example 7.9] are within 1.5-fold of each other in IC50: 27 nM for the first, 32 nM for the second.

First: Cc1cc(CN2CCCCC2)ccc1C(=O)Cn1ncc(OCc2ccc(Cl)cn2)cc1=O [Example 7.5]
Second: Cc1cc(CN2CCC[C@H](O)C2)ccc1C(=O)Cn1ncc(OCc2ccc(Cl)cn2)cc1=O [Example 7.10]
The IC50 of the first is 1.6-fold lower: 16 nM for the first, 25 nM for the second. The first is the more potent here.

Going from CNCc1ccc(C(=O)Cn2ncc(OCc3ccc(Cl)cn3)cc2=O)c(C)c1 [Example 7.6, 5-(5-Chloro-pyridin-2-ylmethoxy)-2-[2-(2-methyl-4-methylaminomethyl-phenyl)-2-oxo-ethyl]-2H-pyridazin-3-one] to CCNCc1ccc(C(=O)Cn2ncc(OCc3ccc(Cl)cn3)cc2=O)c(C)c1 [Example 7.7, 5-(5-Chloro-pyridin-2-ylmethoxy)-2-[2-(4-ethylaminomethyl-2-methyl-phenyl)-2-oxo-ethyl]-2H-pyridazin-3-one], the IC50 falls from 28 nM to 18 nM (1.6-fold). The second is the more potent here.

Cc1cc(CN2CCC(CO)CC2)ccc1C(=O)Cn1ncc(OCc2ccc(Cl)cn2)cc1=O [Example 7.8] and Cc1cc(CN2CC[C@H](O)C2)ccc1C(=O)Cn1ncc(OCc2ccc(Cl)cn2)cc1=O [Example 7.12] are within 1.5-fold of each other in IC50: 26 nM for the first, 30 nM for the second.

With Cc1cc(CN2CCC[C@@H](O)C2)ccc1C(=O)Cn1ncc(OCc2ccc(Cl)cn2)cc1=O [Example 7.11] the IC50 was 31 nM.
